In patent US20210238172 one finds ring closure, yield after HPLC data, which are given here for two substances.

Read-outs that look alike come from different tables or passages of the source.

For the series the following is noted: amide bond, HATU/DIEA, NMP, 2 steps.

For the substance “8-Ethyl-10,18-dimethyl-7,20-dioxo-6,7,8,11,14,15,20,21,28,29,30,31-dodecahydrobenzo[4,5]imidazo[1,2-a]benzo[4,5]imidazo[2,1-p]dipyrazolo[5,1-e:4′,3′-l][1,3,6,15,17]pentaazacyclohenicosine-3,24-dicarboxamide”, the ring closure, yield after HPLC (21-membered ring, 92.4 mM, 80.0 °C) amounted to 1.7%. “8-ethyl-10,18,30-trimethyl-7,20-dioxo-7,8,11,12,13,14,15,20,21,28,29,30,31,32-tetradecahydro-benzo[4,5]imidazo[2,1-b]benzo[4,5]imidazo[1,2-i]dipyrazolo[5,1-m:4′,3′-t][1,3,6,9,11,14]hexaazacyclodocosine-3,24-dicarboxamide” showed a ring closure, yield after HPLC (22-membered ring, 68.9 mM, 140.0 °C) of 4.56%.
